According to patent US10662194B2, “Substituted 6-anilino-9-heterocyclylpurine derivatives for inhibition of plant stress” (UNIVERZITA PALACKEHO V OLOMOUCI, priority 2014, dated 2020):
≈ marks a conversion by molar mass, not a printed value. Marks after values point to notes of the source that are not given here.

Tests used:
[1] = system: winter wheat variety Diadem; assay: Seed coating, tillering of winter wheat (field experiment); assay type: in vivo; settings: for Number of medium tillers (% of control) / Number of productive tillers (% of control) / Number of weak tillers (% of control): Olomouc, 2012
Procedure: To evaluate the effect of seed coating with compound 12 on morphological yield forming traits of winter wheat field plot experiment was performed in year 2012 on locality Olomouc, Czech Republic. Seeds of winter weat bakery variety Diadem (Selgen) were coated with 10 and 50 μM concentration of compound 12 mixed into seed treatment agent Cruiser 350FS (Syngenta; 10 L of solution per 1000 kg of seeds), seeds coated with only Cruiser 350FS were used for control variant. The seeds were dried and then sown in the sowing rate 3.500.000 seeds per hectare in 4 replications per each variant in randomized positions (each replication was 10 square meter plot). The plants were analyzed for number of productive tillers, medium tillers and weak tillers.

[2] = Calcein AM viability/cytotoxicity assay, BJ; assay type: cell-based; settings: human, BJ foreskin fibroblasts, FIG. 11, read-out: IC50, concentration reducing number of viable cells to 50%
Source text: Absence of toxic effects against mammalian (especially human) cell lines in a wide concentration range is one of the requirements on compounds intended for use in agriculture and medicine. Because toxic compounds negatively influence metabolic processes in cells, many standard cytotoxicity assays are based on measurement of metabolisation rate of various artificial substrates. Resulting product is then quantified e.g. by means of spectrometry. The assays can be easily modified for use in 96-well plates. For evaluation of cytotoxic effect of compounds of this invention, a microtiter assay based on quantification of metabolisation of Calcein AM was used. The assay is widely used in drug screening programs and in chemosensitivity testing. In live cells, Calcein AM is enzymatically hydrolysed and accumulation of resulting calcein is manifested by green fluorescence. The cytotoxicity of the studied compounds was determined with human fibroblast lines MRC-5 (lung fibroblasts) and BJ (foreskin fibroblasts). […] The fluorescence of the live cells was measured at 485 nm/538 nm (excitation/emission) with a Fluoroskan Ascent microplate reader (Labsystems). […]

ARR5:GUS reporter gene = assay: Induction of cytokinin reporter ARR5:GUS in transgenic Arabidopsis plants; assay type: in vivo; settings: 0.01-10 μM, 17 h, FIG. 2
Procedure: Cytokinins induce in Arabidopsis transcription of gene ARR5, a member of A-type response regulator family classified as cytokinin primary response genes being expressed down-stream of sensing by cytokinin receptors. We cultivated transgenic Arabidopsis plants harbouring PARR5::GUS reporter (D'Agostino et al. Plant Physiol. 124: 1706-1717, 2000) in MS medium containing cytokinin BAP, CKX inhibitor INCYDE and novel compounds 12 and 91 in concentrations 0.01, 0.1, 1, 5, 10 μM; DMSO (0.1%) was tested as solvent control. Seeds were surface-sterilized in 70% ethanol and then placed into wells of 6-well microtiter plate (TPP, Switzerland) containing 3 mL of MS medium in each well. After sowing plates were pretreated in dark at 4° C. to synchronize the germination of the seeds. […] Quantitative estimation of the level of ARR5:GUS gene induction was done according to method published by Romanov et al. (Romanov et al. FEBS Letters 515: 39-43, 2002). After extraction of proteins the GUS activity was determined using incubation with fluorogenic substrate MUG (4-methylumbelliferyl glucuronid; 1 h, 37° C.) and then fluorescence 365 nm and 460 nm (excitation and emission wavelengths) was recorded, as described in detail by Spíchal et al. (Spíchal et al. Plant and Cell Physiology 45: 1299-1305, 2004).

[3] = Compound solubility limit in the test medium; assay type: physicochemical; settings: read-out: highest concentration accessible due to the compound solubility
Source text: Maintenance of genome integrity is essential for homeostasis and survival as impaired DNA damage response may predispose to grave pathologies such as neurodegenerative and immunodeficiency syndromes, cancer and premature aging (Mistrik et al., 2009). The potential effect of compound 12 on stimulation of DNA breakage was thus further estimated through analysis of phosphorylated histone H2AX (gamma-H2AX) quantified by optimized automated single-cell image analysis (Mistrik et al., 2009). The compound 12 was tested in concentration of 100 μM, the highest concentration accessible due to the compound solubility. Induction of DNA breakage was tested using human U2OS cells. The U2OS cells were cultivated at standard cultivation condition (37° C., 5% CO2). As a positive control, cells were irradiated by roentgen radiation (Baltobloc) (0.5 Gy-2 Gy), one hour later fixed and stained for γ-H2AX, a well established marker of the DNA damage. Parallel samples were treated by compound 12 for 24 hours, fixed and also stained for γ-H2AX. Microscopy analysis followed by computer based signal quantification was performed as described previously (Mistrik et al., 2009).

COc1cccc(Nc2nc(Cl)nc3c2ncn3C2CCCCO2)c1 (stereo not shown) [compound 12, 2-chloro-6-(3-methoxyanilino)-9-(tetrahydropyran-2-yl)purine]
Number of medium tillers (% of control) ([1]; 10 μM): 75.0* % of control | Number of productive tillers (% of control) ([1]; 10 μM): 106.5 % of control | Number of weak tillers (% of control) ([1]; 10 μM): 102.2 % of control | Number of medium tillers (% of control) ([1]; 50 μM): 78.1* % of control | Number of productive tillers (% of control) ([1]; 50 μM): 124.2** % of control | Number of weak tillers (% of control) ([1]; 50 μM): 80.4 % of control | number of productive tillers compared to untreated control ([1]; 10 and 50 μM): 106-124% | IC50 at 72 h [2]: > 100 µM | induction of ARR5:GUS expression (ARR5:GUS reporter gene): dose-dependent induction of ARR5:GUS expression | solubility [3]: 100 µM (≈ 36 µg/mL)
